Laboratory results reported in publication PMC7956643, “Synthesis of Novel Pyrido[1,2-c]pyrimidine Derivatives with 6-Fluoro-3-(4-piperidynyl)-1,2-benzisoxazole Moiety as Potential SSRI and 5-HT1A Receptor Ligands” (International Journal of Molecular Sciences, 2021).
Marks after values point to notes of the source that are not given here.

How the values were obtained:
[1] = molecular target: T1, 5-HT1A receptor (Mus musculus, UniProt Q64264); assay: Body temperature in mice (induced hypothermia); type: in vivo, CD-1 mice; conditions: mice
T1 construct: from tissue; host or cells: whole animal, male CD-1 mice
T1 sequence (Q64264 1-421): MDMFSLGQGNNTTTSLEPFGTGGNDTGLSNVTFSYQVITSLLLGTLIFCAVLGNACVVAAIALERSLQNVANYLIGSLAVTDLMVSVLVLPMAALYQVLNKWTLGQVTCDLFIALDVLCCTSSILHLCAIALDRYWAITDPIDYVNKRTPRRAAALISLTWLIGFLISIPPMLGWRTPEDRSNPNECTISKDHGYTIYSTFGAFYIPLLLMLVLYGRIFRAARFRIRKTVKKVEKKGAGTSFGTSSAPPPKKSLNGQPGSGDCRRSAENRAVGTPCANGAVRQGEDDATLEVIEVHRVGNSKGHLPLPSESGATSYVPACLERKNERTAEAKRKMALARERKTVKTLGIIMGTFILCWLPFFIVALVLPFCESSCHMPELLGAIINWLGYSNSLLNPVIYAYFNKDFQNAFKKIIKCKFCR
Procedure: (§1) The experiments were performed on male CD-1 mice (23–40 g). The animals were kept at room temperature (21 ± 2 °C) on a natural day-night cycle (March–October) and housed under standard laboratory conditions. They had free access to food and tap water before the experiment. Each experimental group consisted of 6–8 animals/dose. All the animals were used only once. 8-Hydroxy-2-(di-n-propylamino)tetralin hydro-bromide (8-OH-DPAT, Research Biochemical Inc.) was used as aqueous solution. […] Vehicle group was administered as 10% aqueous solution of dimethyl sulphoxide (DMSO). 8-OH-DPAT was injected subcutaneously (sc); 6a and 7g were given intraperitoneally (ip) in a volume of 10 mL/kg/mice. The obtained data were analyzed by Dunnett’s test (one drug administration) or by the Newman–Keuls test (two drugs administrations). Forced swim test: the obtained data was evaluated by one-way analysis of variance (ANOVA) followed by the Dunnett’s multiple comparisons test: p < 0.05 was considered significant.
(§2) The results were expressed as a change in body temperature (Δt) with respect to the basal body temperature, as measured at the beginning of the experiment.

[2] = molecular target: T2, 5-HT7 receptors (Homo sapiens, UniProt P34969); assay: 5-HT7 radioligand binding assay; conditions: [3H]-5-CT; HEK293 cells, human receptor
T2 construct: expressed in transfected cells
T2 sequence (P34969 whole entry): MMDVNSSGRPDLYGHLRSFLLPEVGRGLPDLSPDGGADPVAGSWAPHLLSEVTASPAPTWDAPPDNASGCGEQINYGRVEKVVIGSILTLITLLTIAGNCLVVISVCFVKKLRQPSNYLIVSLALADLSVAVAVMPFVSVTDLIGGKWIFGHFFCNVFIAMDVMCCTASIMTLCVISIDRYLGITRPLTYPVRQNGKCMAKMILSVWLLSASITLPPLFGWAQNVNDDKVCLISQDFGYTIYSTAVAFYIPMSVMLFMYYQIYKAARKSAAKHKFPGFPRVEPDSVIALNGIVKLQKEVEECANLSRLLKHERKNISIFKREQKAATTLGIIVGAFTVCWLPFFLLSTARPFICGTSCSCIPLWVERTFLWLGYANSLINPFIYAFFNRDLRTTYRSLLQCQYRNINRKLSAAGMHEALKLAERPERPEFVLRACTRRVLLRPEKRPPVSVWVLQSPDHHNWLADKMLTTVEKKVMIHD
Procedure: (§3) In vitro radioligand binding assays for 5-HT2A, 5-HT6, 5-HT7 and D2 receptors were carried out using methods published by Zajdel et al.. For the assays, HEK293 cell cultures stably expressing the investigated human receptors were used. Cell pellets were thawed and homogenized in 20 vol of assay buffer using an Ultra Turrax tissue homogenizer, then centrifuged twice at 35000 g for 20 min at 4 °C, with incubation for 15 min at 37 °C in between. The composition of the assay buffers was as follows: for 5-HT2A receptors—50 mM Tris-HCl, 0.1 mM EDTA, 4 mM MgCl2 and 0.1% ascorbate; for 5-HT6 receptors—50 mM Tris-HCl, 0.5 mM EDTA, 4 mM MgCl2; for 5-HT7 receptors—50 mM Tris-HCl, 4 mM MgCl2, 10 µM pargyline and 0.1% ascorbate; for D2 receptors—50 mM Tris-HCl, 1 mM EDTA, 4 mM MgCl2, 120 mM NaCl, 5 mM KCl, 1.5 mM CaCl2 and 0.1% ascorbate. All assays were incubated in total volume of 200 mL in 96-well microtitre plates for 1 h at 37 °C, except for 5-HT2A receptors which were incubated at room temperature for 1.5 h. The process of equilibration was terminated by rapid filtration through Unifilter plates with a 96-well cell harvester, and radioactivity retained on the filters was quantified on a Microbeta plate reader (PerkinElmer, USA). For displacement studies, the assay samples contained as radioligands (PerkinElmer): 2 nM [^3H]-ketanserin (spec. act. 53.4 Ci/mmol) for 5-HT2A receptors; 2 nM [^3H]-LSD (spec. act. 83.6 Ci/mmol) for 5-HT6 receptors; 0.6 nM [^3H]-5-CT (spec. act. 39.2 Ci/mmol) for 5-HT7 receptors and [^3H]-raclopride (spec. act. 76.0 Ci/mmol) for D2 receptors. […] Each compound was tested in triplicate at 7–8 concentrations (10^-11-10^-4 M). The inhibition constants (Ki) were calculated from the Cheng–Prusoff equation [46]. Results were expressed as means of at least two separate experiments.

[3] = molecular target: T3, D2 receptors (Homo sapiens, UniProt P14416); assay: D2 radioligand binding assay; conditions: [3H]-raclopride; HEK293 cells, human receptor
T3 construct: expressed in transfected cells
T3 sequence (P14416 whole entry): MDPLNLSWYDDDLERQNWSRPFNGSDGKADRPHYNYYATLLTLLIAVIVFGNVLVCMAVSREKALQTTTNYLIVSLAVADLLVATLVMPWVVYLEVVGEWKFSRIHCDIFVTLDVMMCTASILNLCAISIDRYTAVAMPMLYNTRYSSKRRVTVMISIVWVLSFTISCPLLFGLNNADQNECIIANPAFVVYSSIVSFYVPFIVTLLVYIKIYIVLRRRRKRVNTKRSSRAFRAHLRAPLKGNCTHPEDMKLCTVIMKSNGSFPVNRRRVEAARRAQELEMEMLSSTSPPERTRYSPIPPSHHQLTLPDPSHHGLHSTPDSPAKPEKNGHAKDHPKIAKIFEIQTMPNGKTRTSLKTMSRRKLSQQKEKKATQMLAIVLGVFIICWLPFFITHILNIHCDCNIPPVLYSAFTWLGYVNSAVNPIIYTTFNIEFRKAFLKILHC
Procedure: as §3

[4] = molecular target: T4, 5-HT6 receptors (Homo sapiens, UniProt P50406); assay: 5-HT6 radioligand binding assay; conditions: [3H]-LSD; HEK293 cells, human receptor
T4 construct: expressed in transfected cells
T4 sequence (P50406 whole entry): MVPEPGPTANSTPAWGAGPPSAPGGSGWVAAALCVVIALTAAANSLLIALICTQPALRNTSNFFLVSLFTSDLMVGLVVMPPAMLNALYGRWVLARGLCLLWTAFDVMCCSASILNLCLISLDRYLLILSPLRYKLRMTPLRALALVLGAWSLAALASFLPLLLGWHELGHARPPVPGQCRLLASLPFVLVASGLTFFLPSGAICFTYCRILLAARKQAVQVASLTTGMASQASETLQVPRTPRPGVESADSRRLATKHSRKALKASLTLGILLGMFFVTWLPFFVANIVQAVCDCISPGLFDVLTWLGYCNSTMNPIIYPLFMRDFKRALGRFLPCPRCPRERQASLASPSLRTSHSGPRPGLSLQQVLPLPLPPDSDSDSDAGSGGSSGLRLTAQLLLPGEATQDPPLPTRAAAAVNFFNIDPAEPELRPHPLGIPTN
Procedure: as §3

[5] = molecular target: T1, 5-HT1A receptor; assay: Effect of WAY-100635 on the hypothermia induced by tested compounds; type: in vivo, CD-1 mice; conditions: mice
Procedure: as §1, §2

[6] = molecular target: T5, SERT protein (Rattus norvegicus, UniProt P31652); assay: SERT radioligand binding assay; conditions: [3H]-citalopram 1.0 nM; rat cortex tissue
T5 construct: from tissue; host or cells: rat cortex
T5 sequence (P31652 whole entry): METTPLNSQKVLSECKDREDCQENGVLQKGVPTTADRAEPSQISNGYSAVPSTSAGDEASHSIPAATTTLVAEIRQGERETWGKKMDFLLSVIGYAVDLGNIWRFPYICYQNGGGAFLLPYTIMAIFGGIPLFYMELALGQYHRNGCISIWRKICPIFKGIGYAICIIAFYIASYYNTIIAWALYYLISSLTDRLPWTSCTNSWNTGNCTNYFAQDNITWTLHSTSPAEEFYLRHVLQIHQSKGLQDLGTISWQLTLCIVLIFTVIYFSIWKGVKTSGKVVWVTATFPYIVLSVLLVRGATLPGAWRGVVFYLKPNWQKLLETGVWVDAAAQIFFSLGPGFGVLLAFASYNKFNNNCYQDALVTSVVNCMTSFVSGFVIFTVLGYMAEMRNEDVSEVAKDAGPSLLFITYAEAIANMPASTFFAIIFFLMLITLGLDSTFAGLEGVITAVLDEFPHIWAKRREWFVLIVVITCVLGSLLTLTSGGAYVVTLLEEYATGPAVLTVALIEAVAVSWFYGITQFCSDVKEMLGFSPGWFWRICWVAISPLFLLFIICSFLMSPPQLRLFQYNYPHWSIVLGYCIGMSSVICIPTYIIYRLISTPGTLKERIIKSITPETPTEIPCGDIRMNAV
Procedure: Radioligand binding was performed using rat cortex tissue. All assays were carried out in duplicate. First, 50 µL working solution of the tested compounds, 50 µL [^3H]-citalopram (final concentration 1.0 nM) and 150 µL tissue suspension, prepared in assay buffer (50 mM Tris. pH 7.7; 150 mM NaCl; 5 mM KCl), were transferred to a polypropylene 96-well microplate using 96-wells pipetting station Rainin Liquidator (MettlerToledo). […] The reaction was terminated by rapid filtration through GF/B filter mate presoaked with 0.3% polyethyleneimine for 30 min. Ten rapid washes with 200 µL 50 mM Tris buffer (4 °C, pH 7.7) were performed using an automated harvester system—Harvester-96 MACH III FM (Tomtec). […] Data were fitted to a one-site curve-fitting equation with Prism 6 (GraphPad Software) and Ki values were estimated from the Cheng–Prusoff equation.

[7] = molecular target: T6, human 5-HT1A receptor (Homo sapiens, UniProt P08908); assay: 5-HT1A radioligand binding assay; conditions: [3H]-8-OH-DPAT 1 nM; membranes from CHO-K1 cells with human 5-HT1A receptor
T6 construct: purchased PerkinElmer; host or cells: CHO-K1 cells, stably transfected
T6 sequence (P08908 1-422): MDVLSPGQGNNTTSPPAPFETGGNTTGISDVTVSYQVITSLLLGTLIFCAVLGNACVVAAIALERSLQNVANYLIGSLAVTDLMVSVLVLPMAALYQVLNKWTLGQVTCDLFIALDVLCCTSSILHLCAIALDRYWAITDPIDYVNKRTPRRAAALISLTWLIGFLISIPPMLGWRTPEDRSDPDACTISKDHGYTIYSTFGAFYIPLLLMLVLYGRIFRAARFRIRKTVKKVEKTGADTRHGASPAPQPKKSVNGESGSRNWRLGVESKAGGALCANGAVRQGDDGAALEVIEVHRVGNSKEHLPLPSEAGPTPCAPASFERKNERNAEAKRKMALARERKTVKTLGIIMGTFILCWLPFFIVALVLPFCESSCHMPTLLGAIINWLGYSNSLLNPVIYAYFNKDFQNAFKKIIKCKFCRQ
Procedure: Radioligand binding was performed using membranes from CHO-K1 cells stably transfected with the human 5-HT1A receptor (PerkinElmer, Fremont, CA, USA). All assays were carried out in duplicate. Then, 50 µL working solution of the tested compounds, 50 µL [^3H]-8-OH-DPAT (final concentration 1 nM) and 150 µL diluted membranes (20 µg protein per well) prepared in assay buffer (50 mM Tris, pH 7.4, 10 mM MgSO4, 0.5 mM EDTA, 0.1% ascorbic acid) were transferred to a polypropylene 96-well microplate using 96-wells pipetting station Rainin Liquidator (MettlerToledo, Columbus, OH, USA). […] The reaction was terminated by rapid filtration through GF/B filter mate, presoaked with 0.5% polyethyleneimine for 30 min. Ten rapid washes with 200 µL 50 mM Tris buffer (4 °C, pH 7.4) were performed using an automated harvester system—Harvester-96 MACH III FM (Tomtec, Hamden, CT, USA). […] Data were fitted to a one-site curve-fitting equation with Prism 6 (GraphPad Software, San Diego, CA, USA) and Ki values were estimated from the Cheng–Prusoff equation.

[8] = molecular target: T7, 5-HT2A receptors (Homo sapiens, UniProt P28223); assay: 5-HT2A radioligand binding assay; conditions: [3H]-ketanserin; HEK293 cells, human receptor
T7 construct: expressed in transfected cells
T7 sequence (P28223 whole entry): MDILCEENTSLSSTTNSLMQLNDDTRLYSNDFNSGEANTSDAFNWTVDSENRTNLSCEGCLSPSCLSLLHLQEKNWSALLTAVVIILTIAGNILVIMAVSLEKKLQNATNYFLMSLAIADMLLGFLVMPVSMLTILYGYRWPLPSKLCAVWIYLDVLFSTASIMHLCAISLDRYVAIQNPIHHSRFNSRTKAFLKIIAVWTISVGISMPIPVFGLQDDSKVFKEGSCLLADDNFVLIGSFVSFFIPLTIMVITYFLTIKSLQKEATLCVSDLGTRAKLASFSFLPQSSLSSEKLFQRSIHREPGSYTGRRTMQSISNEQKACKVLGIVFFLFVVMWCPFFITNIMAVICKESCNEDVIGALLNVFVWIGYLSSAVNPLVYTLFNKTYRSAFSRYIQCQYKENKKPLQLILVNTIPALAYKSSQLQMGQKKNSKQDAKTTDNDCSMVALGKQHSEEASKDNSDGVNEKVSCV
Procedure: as §3, with “All assays were incubated in total volume of 200 mL in 96-well microtitre plates for 1 h at 37 °C, except for 5-HT2A receptors which were incubated at room temperature for 1.5 h.” left out

In the case of COc1ccc(-c2c3n(c(=O)n(CCCCN4CCC(c5noc6cc(F)ccc56)CC4)c2=O)CCCC3)cc1 [Compound 7g, 4-(4-Methoxyphenyl)-2-{4-[4-(6-fluoro-1,2-benzoxazol)-1-piperidyl]butyl}-5,6,7,8-tetrahydro-pyrido[1,2-c]pyrimidine-1,3-dione], the melting point is reported as 108 to 109 °C, the “Induction of hypothermia in mice” value [1] is reported as “induced hypothermia” and the “Δt ± SEM, body temperature” value ([1]; 1.25 mg/kg ip, 30 min) is reported as −1.5 ± 0.3 ^b °C. For the same compound, the “Δt ± SEM, body temperature” value ([1]; 1.25 mg/kg ip, 60 min) was −1.7 ± 0.3 ^b °C, the “Δt ± SEM, body temperature” value ([1]; 1.25 mg/kg ip, 90 min) was −1.3 ± 0.4 ^b °C and the “Δt ± SEM, body temperature” value ([1]; 1.25 mg/kg ip, 120 min) was −1.0 ± 0.3 °C. The “Δt ± SEM, body temperature” value ([1]; 2.5 mg/kg ip, 30 min) was −2.2 ± 0.2 ^b °C, the “Δt ± SEM, body temperature” value ([1]; 2.5 mg/kg ip, 60 min) was −2.8 ± 0.3 ^b °C and the “Δt ± SEM, body temperature” value ([1]; 2.5 mg/kg ip, 90 min) was −2.9 ± 0.3 ^b °C. For the same compound, the “Δt ± SEM, body temperature” value ([1]; 2.5 mg/kg ip, 120 min) was −3.0 ± 0.4 ^b °C, the “Δt ± SEM, body temperature” value ([1]; 5 mg/kg ip, 30 min) was −2.1 ± 0.1 ^b °C and the “Δt ± SEM, body temperature” value ([1]; 5 mg/kg ip, 60 min) was −3.4 ± 0.3 ^b °C. The “Δt ± SEM, body temperature” value ([1]; 5 mg/kg ip, 90 min) was −3.9 ± 0.5 ^b °C, the “Δt ± SEM, body temperature” value ([1]; 5 mg/kg ip, 120 min) was −4.2 ± 0.8 ^b °C and the Ki [2] was 94 ± 11 nM. The Ki [3] was 10 ± 1 nM, the Ki [4] was 400 ± 32 nM and the “Δt ± SEM, body temperature” value ([5]; WAY-100635 0.1 mg/kg sc 15 min before compound 1.25 mg/kg, 30 min) was −1.2 ± 0.2 ^b °C. The “Δt ± SEM, body temperature” value ([5]; WAY-100635 0.1 mg/kg sc 15 min before compound 1.25 mg/kg, 60 min) was −0.7 ± 0.3 ^d °C, the “Δt ± SEM, body temperature” value ([5]; vehicle + compound 1.25 mg/kg, 30 min) was −1.5 ± 0.3 ^c °C and the “Δt ± SEM, body temperature” value ([5]; vehicle + compound 1.25 mg/kg, 60 min) was −1.7 ± 0.3 ^c °C.

Compound COc1ccc(-c2c3n(c(=O)n(CCCCN4CCC(c5noc6cc(F)ccc56)CC4)c2=O)CCCC3)cc1 [Compound 7g] has a Ki [6] of 48 ± 2.4 nM, a Ki [7] of 5 ± 0.5 nM and a Ki [8] of 16 ± 2 nM.

In the case of O=c1c(-c2ccc(F)cc2)c2n(c(=O)n1CCCCN1CCC(c3noc4cc(F)ccc34)CC1)CCCC2 [Compound 7i, 4-(4-Fluorophenyl)-2-{4-[4-(6-fluoro-1,2-benzoxazol)-1-piperidyl]butyl}-5,6,7,8-tetrahydro-pyrido[1,2-c]pyrimidine-1,3-dione], the melting point is reported as 57 to 60 °C, the Ki [2] is reported as 161 ± 27 nM and the Ki [6] is reported as 311 ± 35 nM. It also gave a Ki [3] of 17 ± 2 nM, a Ki [7] of 9.5 ± 1.1 nM and a Ki [8] of 44 ± 6 nM. For the same compound, the Ki [4] was 740 ± 183 nM.
